In US10975056B2 (GlaxoSmithKline Intellectual Property Development Limited, priority 2016, dated 2021):

Columns and labels:
[1] = tested on: CpG sites in or near the promoter regions of HBG1 and HBG2 gene loci; experiment: Bisulfite sequence analysis of HBG1/HBG2 DNA methylation in EPCs; assay type: cell-based, human; conditions: EPCs treated for 3 days, average of nine sites
Description: To assay the effect of Compound A on DNA methylation, EPCs treated for 3 days with Compound A were harvested and genomic DNA was bisulfite sequenced. Methylation of nine CpG sites in or near the promoter regions of HBG1 and HBG2 gene loci were selected and analyzed based on their previous characterization as sites of DNMT1 methylation during erythropoiesis (Mabaera et al. Blood: 110 (4). 2007).
Bisulfite Sequence Analysis
Genomic DNA was extracted in duplicate from Day 7 EPCs cultured at 37° C. with 5% CO2 and 5% O2 for 3 days in the presence of compound using a ZYMO gDNA kit (Zymo Research, Irvine, Calif.). The isolated DNA was bisulfite converted using a Zymo EZ DNA Methylation Kit. Primer sets for Bisulfite treated regions within the HBG1 and HBG2 were designed using ABI Methyl Primer Express Software. Analyzed regions included 9 previously described sites of DNMT1-dependent DNA methylation (Mabaera et al. Blood: 110 (4). 2007). DNA was further amplified on the fluidigm and QC'd using the Agilent bio-analyzer. MiSeq was performed using the IIlumina system and the output was Analyzed using ArrayStudio v8 and CLC-GWB v8.1.

[2] = tested on: sickle cell disease (SCD) model transgenic mice; experiment: Fetal hemoglobin in sickle cell disease transgenic mouse model, % HbF protein by HPLC; assay type: in vivo; conditions: oral, 10 or 50 mg/kg BID daily, measured by HPLC
From the text: FIG. 2A depicts the effect of Compound A on fetal hemoglobin in the transgenic mouse model.

[3] = tested on: erythroid progenitor cells (EPCs); experiment: Cell growth analysis in day 7 EPCs (Cell Titer-Glo); assay type: cell-based; conditions: Homo sapiens, read-out: cell growth inhibition by 50%, average pGI50 (converted), 5 days
Description: Day 7 EPCs were cultured in duplicate plates with serially diluted Compound A for 5 days at 37° C. Wells were then analyzed for either induction of fetal hemoglobin (HbF,HbF ELISA) or cell growth (Cell Titer-Glo). In both cases, signal was normalized to vehicle-control treated cells.
All donors provided written informed consent for use of their samples, and the collection and use of the samples received institutional review board approval. All cryopreserved human bone marrow CD34+ cells used here were obtained from AlICells (Emeryville, Calif.) and were generally from different donors. The CD34+ cells were cultured to generate EPCs at day 7. […]
At the time of compound treatment, frozen day 7 EPCs prepared as described above were thawed, washed once and re-suspended in complete culture media as described above with the exception of an increase of rhEPO to 3 U/mL. Cells were counted and diluted to […] for plating into assay plates. […]
Cell growth assays were performed on cell culture plates after 5 days incubation at 37° C. with 5% CO2. […] The plates were then incubated at room temperature for 10 min prior to reading on ViewLux 1430 (Perkin Elmer) using a luminescence protocol. Average reading of control wells (16 wells in column 6 of each assay plate) containing DMSO only were used as the basal level for normalization. […]

SMILES: CCc1c(C#N)c(SC(C(N)=O)c2ccccc2)nc(N(C)C)c1C#N (stereo not drawn) [Compound A, 2-{[3,5-dicyano-6-(dimethylamino)-4-ethylpyridin-2-yl]sulfanyl}-2-phenylacetamide]
- decrease in methylation of nine CpG sites compared with vehicle treated cells [1]: 65±5%
- % HbF protein [2]: dose dependent increases
- GI50 [3]: 1.26 µM
